{
  "source": "patent US5654321A",
  "about": "“2-chloro-3-arylamino-1,4-naphthoquinone derivatives, process for preparation thereof and use thereof as an agent for inhibiting platelet aggregation” (Dong Kook Pharmaceutical Co. Ltd., priority 1996, dated 1997)",
  "key": {"rabbit platelet": {"test_system": "rabbit platelet", "conditions": "Ko et al., Thromb. Res. 57, 453-463, 1990; cited from earlier work"}, "[1]": {"test_system": "[14C]-serotonin-loaded platelet (washed platelet)", "assay": "Inhibition of 5-[14C]-serotonin secretion from agonist-activated platelets", "type": "cell-based, rat", "from_the_text": "Contrary to other cells, platelets contain numerous granules such as dense granule, α-granule, lysosome and peroxisome, each of which preserves very useful physiological substances. When platelet is activated by any stimulus, substances contained in granules are secreted out of the cells through exocytosis. Particularly, dense granule contains adenine nucleotides such as adenosine diphosphate (ADP), adenosine triphosphate (ATP), etc, calcium, serotonin, etc., which are secreted upon aggregation of platelets and then cause irreversible secondary aggregation. Thus, it can be said that irreversible secondary aggregation induced by ADP, thrombin, etc. is the result of such granule secretion. […]\nThe inhibitory activity of the compound of the present invention against serotonin secretion was determined using [^14 C]-serotonin-loaded platelet according to the method of Huzoor, et. al. (see, Huzoor-Akbar, Patel, S., Kokrady, S., Witiak, D. T., Newman, H. A. I. and Feller, D. R., Biochem. Pharmacol. 30, 2013-2020, 1981). […] This mixture was then centrifuged under 12,000×g at room temperature for 2 minutes to separate the supernatant from which the radioactivity of 5-[^14 C]-serotonin was measured."}, "washed platelet [2]": {"test_system": "washed platelet", "assay": "Inhibition of platelet aggregation induced by platelet agonists (aggregometer, light transmission, method of Born)", "type": "cell-based, rat", "conditions": "for pIC50: washed platelet, 37° C., read-out: concentration by which the platelet aggregation induced by agonists is reduced by 50%", "description": "Blood was taken from abdominal aorta of rat using a syringe in which sodium citrate (final content 0.38%) was previously filled, and centrifuged under 160×g at room temperature for 15 minutes to obtain the platelet rich plasma as the supernatant. This platelet rich plasma was centrifuged again under 1500×g for 15 minutes to obtain the precipitate which was then washed three times with a washing buffer solution (129 mM sodium chloride, 0.8 mM dipotassium hydrogenphosphate, 8.9 mM sodium carbonate, 2.8 mM potassium chloride, 0.8 mM magnesium chloride, 5.6 mM glucose, 10 mM N-[2-hydroxyethyl]-piperazine-N'-[2-ethanesulfonic acid], acidity pH 7.4) containing 2 mM ethylenediamine tetraacetic acid to remove protein and calcium from the plasma. This […] was then carefully re-suspended in a modified Tyrode's buffer solution (129 mM sodium chloride, 0.8 mM dipotassium hydrogenphosphate, 8.9 mM sodium carbonate, 2.8 mM potassium chloride, 0.8 mM magnesium chloride, 5.6 mM glucose, 10 mM N-[2-hydroxyethyl]piperazine-N-'-[2-ethanesulfonic acid], acidity pH 7.4) containing 0.35% bovine serum albumin to obtain the washed platelet.\nIn this experiment, the platelet aggregation ability was determined by measuring a change in light transmission depending on turbidity change by means of an apparatus for measuring platelet aggregation ability (Chronolog Co.: Pennsylvania, Harvertown) according to a method of Born (see, Born, G. V. R., Nature, 194, 927, 1962). As the control, the light transmission degree for the plasma having substantially no platelet was used. 495 μl of the platelet rich plasma prepared in the above (1) was added to a cuvette for aggregometer, which has a silicon-treated surface. This cuvette was pre-treated by inserting it into a cuvette channel which is maintained at 37° C. and retaining for 30 seconds. Then, 2.5 μl of the compound according to the present invention, NQ-Y15 (final concentration 10^-4 M), dissolved in dimethylsulfoxide was added to the cuvette. The reaction was conducted again at 37° C. for 8 minutes. Then, the change in light transmission developed by adding 2.5 μl of thrombin (final concentration 0.5U/ml) thereto was measured for 10 minutes.\nIn addition, 495 μl of the washed platelet prepared in the above (1) was pre-treated for 30 seconds at 37° C. according to the same procedure as above and then 2.5 μl of the compound according to the present invention, NQ-Y15, dissolved in dimethylsulfoxide was added thereto. This mixture was allowed to react for 8 minutes at 37° C. Then, 2.5 μl of the platelet agonist (thrombin 0.1U/ml, collagen 10 μg/ml or calcium ionophore A23187 having the following formula 2 μM) was added to the reaction mixture to induce the platelet aggregation and then the change in light transmission was measured for 10 minutes. In this experiment, the light transmission degree for Tyrode's buffer solution was used as the control. [drawing 7]\nThe result was determined by calculating the relative ratio of the light transmission degree obtained in each case to the light transmission degree obtained from treatment only with platelet agonists, which is regarded as 100% aggregation."}, "[3]": {"test_system": "washed platelet (thromboxane B2 synthesis)", "assay": "Inhibition of thromboxane A2 production (thromboxane B2 by radioimmunoassay) in collagen-activated platelets", "type": "cell-based, rat", "conditions": "for Thromboxane B2: DMSO + collagen 98.44 ± 11.52, DMSO + saline 0.82 ± 0.22", "description": "The ability of producing thromboxane A2 was determined as follow according to the method described in literature [see, Ko, F. N., Sheu, S. J., Liu, Y. M., Huang, T. F., and Teng, C. M., Inhibition of rabbit platelet aggregation by 1,4-naphthoquinones, Thromb. Res. 57, 453-463, 1990]. The experiment was conducted in a plastic cuvette containing 0.5 ml of the washed platelet (3×10^8 platelet/ml) while maintaining the temperature at 37° C. First, the washed platelet was pre-treated with the compound of the present invention, NQ-Y15, for 8 minutes and then collagen was added thereto. After incubation for 5 minutes, the reaction was allowed to stop by adding 2 mM ethylenediamine tetraacetic acid and 50 μM indomethacin. This mixture was centrifuged under 12,000×g at room temperature for 2 minutes to separate the supernatant which was then stored at -20° C. Since thromboxane A2 has a unstable structure and therefore, is immediately converted into a stable thromboxane B2, the production of thromboxane B2 as an index for the thromboxane A2 production was measured by radioimmunoassay."}, "washed platelet [4]": {"test_system": "washed platelet", "assay": "Excretion of lactic acid dehydrogenase (LDH) from platelets, cytotoxicity", "type": "cell-based, rat", "conditions": "for Concentration of LDH: NQ-Y15 0.1 mM, Triton X-100 0.1%", "from_the_text": "Lactic acid dehydrogenase (LDH) is an enzyme present in cytoplasm of platelets and is excreted from platelet cytoplasm into extracellular fluid when platelet membrane is injured or cytotoxicity such as cytolysis is induced. Accordingly, it was intended to identify whether the compound of the present invention induces the cytotoxicity by quantitatively measuring lactic acid dehydrogenase excreted after the pre-treatment with the compound of the present invention.\nTo the washed platelet, dimethylsulfoxide(DMSO) (control group) which can dissolve the compound, NQ-Y15, of the present invention, NQ-Y15 or Triton X-100 (0.1%) which can disrupt the cellular membrane was added. Then, this mixture was centrifuged under 12,000×g at room temperature for 2 minutes to separate the supernatant. To the separated supernatant was added a reagent for measuring lactic acid dehydrogenase LD-L10^R (Sigma) and then the excreted lactic acid dehydrogenase was quantitatively analyzed by means of an automated clinical chemistry analyzer SBA300 (Gilford) which can automatically quantitate lactic acid dehydrogenase."}, "human platelet": {"test_system": "human platelet", "conditions": "Blackwell et al., Thromb. Res. 37, 103-114, 1985; cited from earlier work"}},
  "note": "pIC50: −log10 of the molar value. “Also recorded” adds a separate entry of the source. Read-outs that look alike come from different tables or passages of the source.",
  "data": [
    {"molecule": "CC1=C(Cl)C(=O)c2ccccc2C1=O", "note": "[2-chloro-3-methyl-1,4-naphthoquinone]", "values": [
      {"measurement": "inhibition of platelet aggregation in rabbit (in words)", "setting": "rabbit platelet", "result": "inhibits the platelet aggregation in rabbit"}
    ]},
    {"molecule": "N#Cc1ccc(NC2=C(Cl)C(=O)c3ccccc3C2=O)cc1", "note": "[NQ-Y15, 2-chloro-3-[(4-cyanophenyl)-amino]-1,4-naphthoquinone]", "values": [
      {"measurement": "inhibition of serotonin secretion increased by collagen (in words)", "setting": "[1]; collagen, within concentration range inhibiting platelet aggregation (FIG. 5)", "result": "inhibits the serotonin secretion"},
      {"measurement": "inhibition of serotonin secretion increased by thrombin (in words)", "setting": "[1]; thrombin, within concentration range inhibiting platelet aggregation (FIG. 4)", "result": "inhibits the serotonin secretion increased by thrombin"},
      {"measurement": "pIC50", "setting": "washed platelet [2]; Rattus norvegicus, Platelet, A23187 2 μM, 8 min pre-treatment (FIG. 3)", "result": "~4.00"},
      {"measurement": "pIC50", "setting": "washed platelet [2]; Rattus norvegicus, Platelet, collagen 10 μg/ml, 8 min pre-treatment (FIG. 2)", "result": "~5.15"},
      {"measurement": "pIC50", "setting": "washed platelet [2]; Rattus norvegicus, Platelet, thrombin 0.1U/ml, 8 min pre-treatment (FIG. 1)", "result": "~4.42"},
      {"measurement": "IC100", "setting": "washed platelet [2]; Rattus norvegicus, Platelet, agonist not stated, read-out: concentration to completely inhibit the platelet aggregation", "result": 100, "unit": "µM"},
      {"measurement": "inhibition of platelet aggregation induced by platelet agonists (in words)", "setting": "washed platelet [2]; thrombin, collagen and A23187, FIGS. 1 to 3", "result": "inhibits the platelet aggregation induced by platelet agonists dependent upon its concentration"},
      {"measurement": "Thromboxane B2", "setting": "[3]; NQ-Y15 10 μM + collagen", "result": "78.33 ± 11.85", "unit": "ng/mL"},
      {"measurement": "Thromboxane B2", "setting": "[3]; NQ-Y15 30 μM + collagen", "result": "15.30 ± 2.84", "unit": "ng/mL"},
      {"measurement": "Thromboxane B2", "setting": "[3]; NQ-Y15 50 μM + collagen", "result": "8.50 ± 1.81", "unit": "ng/mL"},
      {"measurement": "inhibition at 30 µM", "setting": "[3]; Rattus norvegicus, Platelet, 30 μM, read-out: inhibitory effect on the increase in thromboxane A2 production induced by collagen", "result": 15.5, "unit": "%"},
      {"measurement": "inhibition at 50 µM", "setting": "[3]; Rattus norvegicus, Platelet, 50 μM, read-out: inhibitory effect on the increase in thromboxane A2 production induced by collagen", "result": 86.3, "unit": "%"},
      {"measurement": "Concentration of LDH", "setting": "washed platelet [4]; 0 min, DMSO 6.13 ± 1.13", "result": "2.87 ± 0.12", "unit": "U/L"},
      {"measurement": "LDH excretion versus control group / cytotoxicity (in words)", "setting": "washed platelet [4]; 0.1 mM, pre-treated for 120 minutes", "result": "does not show any significant difference from the control group; also recorded: does not cause a cytotoxicity even at high concentration"},
      {"measurement": "Concentration of LDH", "setting": "washed platelet [4]; 10 min, DMSO 5.73 ± 2.54", "result": "4.57 ± 1.05", "unit": "U/L"},
      {"measurement": "Concentration of LDH", "setting": "washed platelet [4]; 20 min, DMSO 8.25 ± 1.85", "result": "5.47 ± 0.52", "unit": "U/L"},
      {"measurement": "Concentration of LDH", "setting": "washed platelet [4]; 40 min, DMSO 9.77 ± 1.37", "result": "8.47 ± 0.43", "unit": "U/L"},
      {"measurement": "Concentration of LDH", "setting": "washed platelet [4]; 80 min, DMSO 12.20 ± 1.74", "result": "11.55 ± 0.05", "unit": "U/L"},
      {"measurement": "Concentration of LDH", "setting": "washed platelet [4]; 120 min, DMSO 14.83 ± 1.39", "result": "16.67 ± 1.24", "unit": "U/L"}
    ]},
    {"molecule": "CC1=CC(=O)c2ccccc2C1=O", "note": "[vitamin K3, menadione]", "values": [
      {"measurement": "inhibition of platelet aggregation in human being (in words)", "setting": "human platelet", "result": "has an effect on inhibition of platelet aggregation in human being"}
    ]},
    {"molecule": "Triton X-100 [reference compound]", "values": [
      {"measurement": "Concentration of LDH", "setting": "washed platelet [4]; 0 min, DMSO 6.13 ± 1.13", "result": "426.40 ± 9.64", "unit": "U/L"},
      {"measurement": "Concentration of LDH", "setting": "washed platelet [4]; 10 min, DMSO 5.73 ± 2.54", "result": "443.07 ± 1.27", "unit": "U/L"},
      {"measurement": "Concentration of LDH", "setting": "washed platelet [4]; 20 min, DMSO 8.25 ± 1.85", "result": "444.93 ± 4.97", "unit": "U/L"},
      {"measurement": "Concentration of LDH", "setting": "washed platelet [4]; 40 min, DMSO 9.77 ± 1.37", "result": "442.20 ± 0.87", "unit": "U/L"},
      {"measurement": "Concentration of LDH", "setting": "washed platelet [4]; 80 min, DMSO 12.20 ± 1.74", "result": "443.73 ± 0.37", "unit": "U/L"},
      {"measurement": "Concentration of LDH", "setting": "washed platelet [4]; 120 min, DMSO 14.83 ± 1.39", "result": "443.30 ± 2.53", "unit": "U/L"}
    ]}
  ]
}
